Strand notation (5' to 3'): a small letter for the sugar, then the base; units joined by * are phosphorothioate-linked, units joined directly phosphodiester-linked; [ ] holds rarer units or linkages, { } end groups; capitals alone tell only the bases. e = 2'-O-(2-methoxyethyl) (MOE); k = constrained ethyl (cEt); [5mC] = 5-methylcytosine; d = 2'-deoxy (DNA)
Tests used:
human APOE RNA [1] = assay: Dose-dependent inhibition of human APOE RNA in HepG2 cells, electroporation, 50,000 cells per well, RT-PCR normalized to GAPDH (Example 4, Tables 8-10); assay type: cell-based; details: HepG2, electroporation, 16-hour treatment
How it was run: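 HepG2 cells, 50,000 per well, electroporated with modified oligonucleotide at various concentrations. APOE RNA quantified by RT-PCR with human primer probe set RTS3073, normalized to GAPDH. Values are percent APOE RNA relative to untreated control cells.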

human APOE RNA [2] = assay: Activity in APOE C57BL/6NTac-Apoeem7250 knock-in mice, single ICV bolus, 20 weeks (Example 13); assay type: in vivo; details: single ICV bolus 300 μg, 20 weeks post treatment, normalized to mouse Ppia
Description: Modified oligonucleotides described above were tested in the APOE C57BL/6NTac-Apoeem7250 knock-in mouse model described above.
APOE C57BL/6NTac-Apoeem7250 knock-in mice were divided into groups of 4 mice each. Each mouse received a single ICV bolus of 300 μg of modified oligonucleotide. A group of 2-4 mice received a single ICV bolus with PBS as a negative control.
Twenty weeks post treatment, mice were sacrificed and RNA was extracted from cortical brain tissue and spinal cord for quantitative real-time RT-PCR analysis of RNA expression of APOE using human primer probe set RTS3073 (described herein above). APOE RNA levels were normalized to mouse Ppia. Mouse Ppia was amplified using primer probe set m_cyclo24 (described herein above). Results are presented as percent human APOE RNA relative to the amount of human APOE RNA in PBS treated animals, (% control). Each experiment is identified in separate tables below.

Substance	APOE RNA (% UTC) (human APOE RNA [1]; 5 nM)	APOE RNA (% UTC) (human APOE RNA [1]; 13 nM)	APOE RNA (% UTC) (human APOE RNA [1]; 33 nM)	APOE RNA (% UTC) (human APOE RNA [1]; 82 nM)	APOE RNA (% UTC) (human APOE RNA [1]; 205 nM)	APOE RNA (% UTC) (human APOE RNA [1]; 512 nM)	APOE RNA (% UTC) (human APOE RNA [1]; 1,280 nM)	APOE RNA (% UTC) (human APOE RNA [1]; 3,200 nM)	APOE RNA (% UTC) (human APOE RNA [1]; 8,000 nM)	APOE RNA (% UTC) (human APOE RNA [1]; 20,000 nM)	IC50 (human APOE RNA [1]) [µM]	APOE RNA (% control) Cortex (human APOE RNA [2]) [% control]	APOE RNA (% control) Spinal Cord (human APOE RNA [2]) [% control]
1757562: mixed MOE/cEt gapmer TTGGTGAATCTTTATTAA, sugar eeeekddddddddkkeee, linkages soossssssssssooss (eT*eTeGeG*kT*dG*dA*dA*dT*d[5mC]*dT*dT*dT*kAkTeT*eA*eA) [compound 1757562]	160	86	56	87	52	45	40	29	28	16	0.57	96	88
1757585 (eT*eTeGkGkT*dG*dA*dA*dT*d[5mC]*dT*dT*dT*dA*dT*kTeAeA*eA*e[5mC]; antisense) [Compound 1757585]	45	49	44	38	33	53	19	32	12	1	0.01	62	61
1757564: mixed MOE/cEt gapmer TTGGTGAATCTTTATTAA, sugar eeeekddddddddkeeke, linkages soossssssssssooss (eT*eTeGeG*kT*dG*dA*dA*dT*d[5mC]*dT*dT*dT*kAeTeT*kA*eA) [compound 1757564]	91	86	92	93	82	72	62	39	22	33	2.21	95	69
1757568 (eA*e[5mC]eTeTeG*dG*dT*dG*dA*dA*dT*d[5mC]*dT*dT*dT*kAkTeT*eA*eA; antisense) [Compound 1757568]	86	87	104	96	93	63	47	31	21	19	1.39	73	58
1757581 (eT*eTeGeGkT*dG*dA*dA*dT*d[5mC]*dT*dT*dT*dA*dT*eTeAeA*eA*e[5mC]; antisense) [Compound 1757581]	83	85	100	78	76	58	33	25	15	8	0.68	87	75
1757561: mixed MOE/cEt gapmer TTGGTGAATCTTTATTAA, sugar eeekkddddddddkeeee, linkages soossssssssssooss (eT*eTeGkG*kT*dG*dA*dA*dT*d[5mC]*dT*dT*dT*kAeTeT*eA*eA) [compound 1757561]	96	191	240	104	130	71	45	38	35	12	2.09	92	64
1757586 (eT*eTeGeGkT*dG*dA*dA*dT*d[5mC]*dT*dT*dT*dA*dT*kTkAeA*eA*e[5mC]; antisense) [Compound 1757586]	202	246	52	157	129	34	27	20	19	–	0.5	88	83
1757551: mixed MOE/cEt gapmer TTGGTGAATCTTTATTAA, sugar eeekkddddddddeeeee, linkages soossssssssssooss (eT*eTeGkG*kT*dG*dA*dA*dT*d[5mC]*dT*dT*dT*eAeTeT*eA*eA) [compound 1757551]	91	248	88	55	52	41	35	29	14	9	0.43	93	53
1757570 (eA*e[5mC]eTeTkG*dG*dT*dG*dA*dA*dT*d[5mC]*dT*dT*dT*kAkTeT*eA*eA; antisense) [Compound 1757570]	154	–	–	151	62	26	42	22	18	18	0.58	64	48
1757582 (eT*eTeGkGkT*dG*dA*dA*dT*d[5mC]*dT*dT*dT*dA*dT*eTeAeA*eA*e[5mC]; antisense) [Compound 1757582]	87	107	72	92	70	64	29	12	37	9	0.71	62	44
1757559: mixed MOE/cEt gapmer TTGGTGAATCTTTATTAA, sugar eeeekddddddddkeeee, linkages soossssssssssooss (eT*eTeGeG*kT*dG*dA*dA*dT*d[5mC]*dT*dT*dT*kAeTeT*eA*eA) [compound 1757559]	90	80	89	87	81	89	60	42	39	25	3.11	94	69
1757544: mixed MOE/cEt gapmer TTGGTGAATCTTTATTAA, sugar ekeeeddddddddeeeee, linkages soossssssssssooss (eT*kTeGeG*eT*dG*dA*dA*dT*d[5mC]*dT*dT*dT*eAeTeT*eA*eA) [compound 1757544]	104	86	100	111	90	75	59	42	26	12	2.18	101	96
1757563: mixed MOE/cEt gapmer TTGGTGAATCTTTATTAA, sugar eeeekddddddddkekee, linkages soossssssssssooss (eT*eTeGeG*kT*dG*dA*dA*dT*d[5mC]*dT*dT*dT*kAeTkT*eA*eA) [compound 1757563]	95	103	84	94	76	67	54	41	17	8	1.38	93	71
